Experimental data as given in ChEMBL document CHEMBL1154469, “Design and synthesis of bisubstrate inhibitors of type 1 17beta-hydroxysteroid dehydrogenase: overview and perspectives” (Eur J Med Chem, 2008).

Experiments:
[1] = target: T1, 17-beta-hydroxysteroid dehydrogenase type 1 (Homo sapiens, UniProt P14061); assay: Inhibition of 17beta-HSD1 expressed in HEK 293 cells assessed as conversion of [14C]estrone to [14C]estradiol using NADPH; assay type: cell-based, HEK293
T1 sequence (P14061 whole entry): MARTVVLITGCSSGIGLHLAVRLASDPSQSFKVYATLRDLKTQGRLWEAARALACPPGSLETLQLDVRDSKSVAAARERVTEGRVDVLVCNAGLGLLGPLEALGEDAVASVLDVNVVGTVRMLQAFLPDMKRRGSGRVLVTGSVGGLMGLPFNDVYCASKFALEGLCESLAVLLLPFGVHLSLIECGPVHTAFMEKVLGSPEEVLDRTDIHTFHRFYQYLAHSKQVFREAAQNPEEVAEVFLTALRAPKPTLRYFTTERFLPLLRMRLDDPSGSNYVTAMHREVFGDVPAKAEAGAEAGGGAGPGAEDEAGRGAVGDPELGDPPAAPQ

[2] = target: T2, 17-beta-hydroxysteroid dehydrogenase type 1 (Homo sapiens) (UniProt P14061); assay: Inhibition of 17beta-HSD1 expressed in HEK 293 cells assessed as conversion of [14C]estrone to [14C]estradiol at 0.1 uM using NADH; assay type: cell-based; details: HEK293
T2 sequence (whole entry): T1 sequence (P14061 whole entry)

IC50 [1] | inhibition [2] | Structure (SMILES)
8 nM | – | C[C@]12CC[C@@H]3c4ccc(O)cc4CC[C@H]3[C@@H]1C[C@H](CCCCCCCCC(=O)OC[C@H]1O[C@@H](n3cnc4c(N)ncnc43)[C@H](O)[C@@H]1O)[C@@H]2O
– | 27% | C[C@]12CC[C@@H]3c4ccc(O)cc4CC[C@H]3[C@@H]1C[C@H](CCCCCCCCCCCCCc1cc(N)cc(CC(=O)O)c1)[C@@H]2O
– | 49% | C[C@]12CC[C@@H]3c4ccc(O)cc4CC[C@H]3[C@@H]1C[C@H](CCCCCCCCCCCCCc1cccc(CC(=O)O)c1)[C@@H]2O
